Measurements reported in US6693167B1, “Peptide-based gemini compounds” (SmithKline Beecham p.l.c., priority 1997, dated 2004).

Columns and labels:
Format in all cases: cell-based
HEK293 cells = experiment: Transfection of luciferase plasmid into HEK293 cells
Procedure: All tissue culture reagents were obtained from Life Technologies Inc. HEK 293 cells were seeded at 2-3×10^5 cells per well in Nunc six-well culture plates, 24 hours prior to transfection. The cells were seeded in 2 mls Dulbeccos Modified Eagle medium containing Earles salts and supplemented with 10% v/v foetal bovine serum (=complete medium). The cells were grown at 37° C. in 5% CO2 in a humidified atmosphere. 6 ug DNA (“luciferase control plasmid” from Promega Corp.) were dissolved in 100 ul serum free medium (OPTI-MEM®). The peptide-based gemini compounds were made up at 1 mg/ml in tissue culture grade water and then diluted in OPTI-MEM® to the appropriate concentration to a final volume of […]. The DNA and gemini solutions were mixed (to a total volume of 200 ul; final concentrations of 5, 25, 50, 100, 150, 200, 250 and 300 ug/ml) and left at room temperature for 15 minutes. The DNA/gemini mix was placed onto the cells in each well and left in contact for 18-20 hours. The cells were then washed twice with phophate buffered saline prior to 1 ml of fresh complete medium being added. Cells were incubated for a further 24 hours prior to lysis and luciferase activity assayed.
All luciferase activity assays were performed using the Canberra Packard (Berkshire, UK) Luclite kit according to the manufacturer's instructions with the exception that the cells in each well were resuspended in 1 ml lysis buffer and 10 ul aliquots mixed with 100 ul of the luciferase substrate. The reaction mix was left for a 15 minutes adaptation period in the dark before counting for 5 minutes in a Top Count scintillation counter. Luciferase activity is measured as counts per second (CPS) from the scintillation counter. Four independent counts were taken per well.
Control transfections were set up with no DNA, CaPO4, an anionic gemini compound (1) and the commercially available lipofection reagents LipofectAmine™ and Lipotaxi™ at the manufacturers recommended concentrations (10, 25, 50, 75, 125 ug/ml and 175, 250, 325, 400 and 500 ug/ml respectively).

CHO-K1 cells [1] = experiment: Transfection of luciferase plasmid into CHO-K1 cells
Procedure: CHO-K1 cells (ATCC: CRL-9618) were seeded into T25-culture flasks (Corning-Costar Buckinghamshire, UK), at 7×10^5 cells per flask, 24 hours prior to transfection. The CHO-K1 cells were seeded in 5 ml MEM alpha medium with ribonucleosides and deoxyribonucleosides and supplemented with 1×L-glutamine and 10% v/v foetal bovine serum (complete medium). The cells were grown at 37° C. in 5% CO2 in a humidified atmosphere.
For transfection, 5 ug DNA (luciferase control plasmid) was incubated with the gemini compounds in water (final volume 400 μl). The peptide-based gemini compounds were made up at 1 mg ml^−1 in tissue culture grade water and then diluted to the appropriate concentration to a total volume of 200 μl. Following a 30 minute room temperature incubation, 2.6 ml OPTI-MEM® medium was added and the solution placed on the cells. Following an overnight incubation at 37° C., the transfection solution was replaced with complete medium and the cells incubated at 37° C. 24 hours post transfection the cells were detached from the flask and seeded into 96-well plates at a density of 0.5×10^5 cells per well and incubated for a further 24 hours at 37° C. Luciferase reporter gene assays were performed according to the manufacturers instructions (Roche Diagnostics, Mannheim, Germany) approximately 48 hours post transfection. The plates were left for a 15 minutes adaption period in the dark before counting for 60 seconds in a TopCount NXT counter (Canberra Packard). An average of eight wells were counted per transfection.
Control transfections were set up with no DNA, an anionic gemini compound and the commercially available reagent LipofectAmine PLUS™.

CHO-K1 cells [2] = experiment: Transfection of luciferase plasmid into CHO-K1 cells in combination with supplements (DOPE, PLUS)
Procedure: The transfection ability of the gemini compounds could be further enhanced by the addition of a neutral carrier, for example, dioleyl phosphatidylethanolamine (DOPE) (Farhood, H., et al (1985) Biochim. Biophys. Acta 1235 289) or a complexing reagent, for example, PLUS compound (Life Technologies Inc.). […] Transfection mediated by compound 55 with DOPE in a 2:1 ratio and the addition of 11.6 ul of PLUS compound lead to a mean count of 6.5×10^5 cps representing a 12-fold increase of luciferase activity in comparison to compound 55 alone. Incubation of the PLUS compound with the DNA and combination with compound 55 alone also lead to a 4-fold increase.

[3] = compound 55 with DOPE 2:1 plus 11.6 ul PLUS compound

SMILES: CCCCCCCCCCCCNC(=O)C(CO)NC(=O)C(CSCCSCC(NC(=O)C(N)CCCCNC(=O)C(N)CCCCN)C(=O)NC(CO)C(=O)NCCCCCCCCCCCC)NC(=O)C(N)CCCCNC(=O)C(N)CCCCN.Cl.Cl.Cl.Cl (stereo not shown) [Compound 55]
- Efficiency in facilitating transfection of the luciferase plasmid (HEK293 cells; at concentrations above 150 ug/ml): very efficient
- Most effective (peak) concentration for transfection (HEK293 cells; luciferase control plasmid): 300 µg/mL
- Luciferase activity, mean count at peak efficiency (HEK293 cells; luciferase control plasmid, at the agent's most effective concentration, mean of 4 independent counts): about 45,000 cps
- Efficiency in facilitating transfection of the luciferase plasmid (CHO-K1 cells [1]): very efficient
- Luciferase activity, mean count at most effective concentration (CHO-K1 cells [1]; 5 ug luciferase control plasmid, mean of 8 wells): about 2.4×10^5 cps
- Most effective (peak) concentration for transfection (CHO-K1 cells [1]; luciferase control plasmid): 30 µM
- Increase of luciferase activity (CHO-K1 cells [2]; PLUS compound incubated with the DNA, combined with compound 55 alone (no DOPE)): 4 fold
- Increase of luciferase activity (CHO-K1 cells [2]; compound 55 and DOPE at 2:1 ratio): 9 fold
- Increase of luciferase activity in comparison to compound 55 alone (CHO-K1 cells [2]; [3]): 12 fold
- Luciferase activity, mean count (CHO-K1 cells [2]; [3]): 6.5×10^5 cps
